Laboratory results from PMC3226715 (Chemical research in toxicology, 2011).

How the values were obtained:
GRd = conditions: rat renal proximal tubule cells treated with DCVC; cited from earlier work
MDH = conditions: rat liver mitochondria in the presence of DCVC; cited from earlier work
[1] = Half-life in the presence of GSH; type: physicochemical; conditions: 0.31 mM compound, 1.02 mM GSH (3:10 molar ratio), phosphate buffer pH 7.4, 37°C
[2] = biological target: glutathione reductase (GRd) from baker's yeast (Saccharomyces cerevisiae, UniProt P41921); assay: Covalent modification of the model enzyme GRd, anti-biotin immunoblot; type: binding; conditions: 10 µM NB-DCVCS, 3 h, 37°C, 0.5 mg/mL protein
[3] = biological target: T1, porcine heart mitochondrial malate dehydrogenase (MDH) (Sus scrofa, UniProt P00346); assay: Covalent modification of the model enzyme MDH, anti-biotin immunoblot; type: binding; conditions: 10 µM NB-DCVCS, 3 h, 37°C, 0.5 mg/mL protein
T1 sequence (P00346 25-338): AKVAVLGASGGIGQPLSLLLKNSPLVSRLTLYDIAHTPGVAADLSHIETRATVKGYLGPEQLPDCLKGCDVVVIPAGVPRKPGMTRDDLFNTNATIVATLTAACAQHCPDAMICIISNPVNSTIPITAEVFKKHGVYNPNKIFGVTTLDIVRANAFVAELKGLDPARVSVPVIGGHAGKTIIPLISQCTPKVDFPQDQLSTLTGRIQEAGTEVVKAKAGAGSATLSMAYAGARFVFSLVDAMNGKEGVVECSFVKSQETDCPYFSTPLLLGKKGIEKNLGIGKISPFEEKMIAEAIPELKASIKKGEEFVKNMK

[4] = tested on: rat kidney cytosol proteins; assay: Binding of NB-DCVCS to kidney cytosolic proteins, anti-biotin immunoblot; design: species or system male Sprague Dawley rat; conditions: 6 µg/µL cytosol, 3 h, 37°C
[5] = Stability in isolated rat plasma; type: in vitro ADME, male Sprague-Dawley rat; conditions: 50 µM, 37°C
[6] = Stability in isolated rat whole blood; type: in vitro ADME, male Sprague-Dawley rat; conditions: 50 µM, 37°C
[7] = Stability in phosphate buffer pH 7.4; type: physicochemical
[8] = Stability under acidic conditions; type: physicochemical; conditions: 0.2 M HCl/KCl buffer pH 2, several hours at 37°C (data not shown)

Chain of glutathione reductase (GRd) from baker's yeast (P41921 whole entry): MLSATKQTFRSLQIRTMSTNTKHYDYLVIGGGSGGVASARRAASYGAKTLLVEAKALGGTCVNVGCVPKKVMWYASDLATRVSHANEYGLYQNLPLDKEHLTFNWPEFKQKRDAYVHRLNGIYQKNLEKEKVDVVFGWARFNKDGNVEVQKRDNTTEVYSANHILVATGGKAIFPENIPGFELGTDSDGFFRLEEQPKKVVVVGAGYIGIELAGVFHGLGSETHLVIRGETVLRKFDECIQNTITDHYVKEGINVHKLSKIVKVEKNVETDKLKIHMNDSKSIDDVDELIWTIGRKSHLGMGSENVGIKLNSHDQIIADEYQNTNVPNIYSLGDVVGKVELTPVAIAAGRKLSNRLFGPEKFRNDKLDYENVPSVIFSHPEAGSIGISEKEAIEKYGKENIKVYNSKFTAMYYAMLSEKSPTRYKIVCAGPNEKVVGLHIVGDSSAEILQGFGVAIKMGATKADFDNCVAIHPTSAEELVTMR

Compound: N[C@@H](CSC(Cl)=CCl)C(=O)O [DCVC]
- GRd activity (GRd): inhibited
- MDH activity (MDH): inhibited

Compound: O=C(CCCC[C@@H]1SC[C@@H]2NC(=O)N[C@@H]21)N[C@@H](C[S+]([O-])C(Cl)=CCl)C(=O)O (stereo partly shown) [NB-DCVCS]
- half-life in the presence of GSH [1]: 39.6 min
- modification of glutathione reductase (immunoblot) [2]: extensively modified
- modification of malate dehydrogenase (immunoblot) [3]: extensively modified
- immunoblot signal of modified kidney cytosol proteins ([4]; 312.5 nM to 5 µM NB-DCVCS): concentration-dependent increases in signal and the number of bands
- NB-DCVCS concentration at which modified proteins were detected [4]: ≥ 625 nM
- DCVCS formation from NB-DCVCS (amide bond cleavage) in plasma [5]: No DCVCS formation was observed
- half-life in plasma [5]: 40 min
- detection in plasma after 150 min ([5]; after 150 min): not detectable
- DCVCS formation from NB-DCVCS (amide bond cleavage) in whole blood [6]: No DCVCS formation was observed
- half-life in whole blood [6]: 68.5 min
- detection in whole blood after 150 min ([6]; after 150 min): not detectable
- time stable in phosphate buffer ([7]; phosphate buffer, 37°C): greater than 120 min
- stability in phosphate buffer pH 7.4 ([7]; several hours at 37°C (data not shown)): stable
- stability under acidic conditions [8]: stable
